Assay [1] deals with MDA-MB-231. The experiment in a line: Percent reduction in cell viability of MDA-MB-231 cells 48 hr after incubation with compound. Type of assay: functional, Homo sapiens.
The test system of assay [2] is MOLT-3. The experiment in a line: Percent reduction in cell viability of MOLT-3 cells 48 hr after incubation with the compound. It counts as functional, Homo sapiens.
Assay [3] relates to MDA-MB-231. The experiment in a line: Percent reduction in cell viability of MDA-MB-231 cells 72 hr after incubation with compound. It counts as functional, Homo sapiens.
The subject of assay [4] is HeLa. The experiment in a line: Percent reduction in cell viability of HeLa cells 72 hr after incubation with 100 uM of compound. It counts as functional, Homo sapiens.
In assay [5] the test system is L132. Nature of the assay: Percent reduction in cell viability of L-132 cells 72 hr after incubation with 100 uM of compound. It counts as functional, Homo sapiens.
The subject of assay [6] is MOLT-3. The experiment in a line: Percent reduction in cell viability of MOLT-3 cells 72 hr after incubation with 100 uM of compound. Type of assay: functional, Homo sapiens.
Assay [7] concerns HeLa. Nature of the assay: Cytotoxic effect of compound measured as cell density of HeLa cells 72 hrs after incubation with compound compared to a initial density of […] cells/mL. It counts as functional, Homo sapiens.
In assay [8] the test system is L132. Nature of the assay: Concentration for low cytotoxic activity against L-132 cell line; Range is 50-100 uM. Type of assay: functional, cell-based. As to conditions: Homo sapiens.
Assay [9] deals with MDA-MB-231. Nature of the assay: Concentration for low cytotoxic activity against MDA-MB-231 cell line; Range is 50-100 uM. Type of assay: functional, cell-based. To be noted: Homo sapiens.
Assay [10] deals with HeLa. The experiment in a line: Concentration for low cytotoxic activity against HeLa cell line; Range is 50-100 uM. As to conditions: Homo sapiens. It counts as functional, cell-based.
In assay [11] the test system is MOLT-3. The experiment in a line: Concentration for low cytotoxic activity against MOLT-3 cell line; Range is 50-100 uM. As to conditions: Homo sapiens. Type of assay: functional, cell-based.
Assay [12] relates to HeLa. Nature of the assay: Percent reduction in cell viability of HeLa cells 72 hr after incubation with compound. It counts as functional, Homo sapiens.
The test system of assay [13] is MOLT-3. The experiment in a line: Percent reduction in cell viability of MOLT-3 cells 72 hr after incubation with the compound. Type of assay: functional, Homo sapiens.
In assay [14] the test system is MOLT-3. The experiment in a line: Percent reduction in cell viability of MOLT-3 cells 72 hr after incubation with 50 uM of compound. It counts as functional, Homo sapiens.

The text below walks through data of ChEMBL document CHEMBL1144912, “Anticancer activity of phenolic acids of natural or synthetic origin: a structure-activity study” (2003).

As for `O=C(O)CCc1cc(O)c(O)c(O)c1`, the Reduction with MDA-MB-231 [1] worked out at 55%; with MOLT-3 [2], 45%.

For the molecule `O=C(O)Cc1cc(O)c(O)c(O)c1`, the Reduction with MDA-MB-231 [3] turned out to be 60%; in the assay with HeLa [4], 80%; in the assay with L132 [5] it was 50%; in the assay on MOLT-3 [6], 47%.

`O=C(O)CCc1ccc(O)c(O)c1` [DIHYDROCAFFEIC ACID]: in the assay with HeLa [7], the Cell density was determined as 500000 cells ml-1.

Turning to `O=C(O)/C=C/c1ccc(O)c(OO)c1`, the Concentration in the assay with L132 [8], in the assay on MDA-MB-231 [9], with HeLa [10] and with MOLT-3 [11] was 100 µM throughout.

For the molecule `O=C(O)c1cc(O)c(O)c(O)c1` [GALLIC ACID], the Reduction in the assay with HeLa [12] is on record as 74%; in the assay on MDA-MB-231 [3], 65%; in the assay with MOLT-3 [13], 50%.

In the case of `O=C(O)Cc1ccc(O)c(O)c1` [3,4-DIHYDROXYPHENYLACETIC ACID], in the assay with MOLT-3 [14], the Reduction is 75%.
